Patent EP3543705A1, “MITOCHONDRIAL PH PROBE” (priority 2018, dated 2019)

How the values were obtained:
[1] = pH dependence of fluorescence at 520 nm of the active probe (pKa study); format: physicochemical; conditions: PBS buffer with 5% BSA, estimated
Procedure: The pH dependence for fluorescence at 520 nm of 5FA-PIP-Cy5, the active form of 5FA-PIP-Cy5-DA was measured with 5FA-PIP-Cy5 dissolved in a PBS buffer with 5% BSA. (see Figure 3). From this study the pKa of the active form was estimated to be 6.88. This value is within expectable range for the fluorescein moiety containing electron-donor amide group and is within the physiologically relevant range of 6.5 - 8.5.

A2780 cells [2] = assay: mitochondrial staining with the inactive (caged) form versus the active form; format: cell-based; conditions: 2uM, identical conditions
[3] = system: mitochondria of A2780 ovarian cancer cell line; assay: probe calibration in defined-pH buffers: collapse of the mitochondrial pH gradient; format: cell-based; conditions: stained cells in high K+ buffers, pH range 6.73 to 8.36
Procedure: A2780 ovarian cancer cells were cultured in 24-well microscopy glass bottom plates in a CO2 incubator. Prior to imaging, the cells were stained with 2uM 5FA-PIP-Cy5-DA, and/or TMRM (20nM) for 30 min in bicarbonate-free DMEM medium to avoid extracellular pH fluctuations, then washed with the same medium (without 5FA-PIP-Cy5-DA) and imaged with confocal spinning disk microscopy at 60x magnification When TMRM was used, this dye was also present in the bicarbonate-free DMEM medium during the imaging of the cells. Separate fluorescent images in green (488/520 nm) and deep red (640/660 nm) spectral channels were acquired on Visitron W1 spinning disk confocal microscope. The florescence ratio was quantified using a specifically designed batch ImageJ plugin. This software thresholds the pH-independent Cy5 channel, quantifies the fluorescence intensity in the thresholded image areas, and uses the thresholded mask to quantify the intensity of pH-dependent 5Fluo channel. The intensity ratio is then used to estimate the mitochondrial pH of the cells. Calibration of the intensity ratio was achieved through the staining of A2780 cells in a series of PBS - 5% BSA buffers with defined pH, containing 20mM HEPES and 5uM FCCP, to equilibrate the mitochondrial pH with the pH of the buffer.
The stained cells were treated with FCCP in high K^+ buffers in a pH range of 6.73 to 8.36.

[4] = system: mitochondria of A2780 ovarian cancer cell line; assay: fluorescein/Cy5 fluorescence ratio in stained live cells treated with nigericin or FCCP; format: cell-based; conditions: 300 nM FCCP or 2uM nigericin versus DMSO vehicle control; cells stained with 2 µM 5FA-PIP-Cy5-DA
Procedure: A2780 ovarian cancer cells were cultured in 24-well microscopy glass bottom plates in a CO2 incubator. […] Separate fluorescent images in green (488/520 nm) and deep red (640/660 nm) spectral channels were acquired on Visitron W1 spinning disk confocal microscope. The florescence ratio was quantified using a specifically designed batch ImageJ plugin. This software thresholds the pH-independent Cy5 channel, quantifies the fluorescence intensity in the thresholded image areas, and uses the thresholded mask to quantify the intensity of pH-dependent 5Fluo channel. The intensity ratio is then used to estimate the mitochondrial pH of the cells. […] Typical pH variations in mitochondria of A2780 ovarian cancer cell line are represented at Figure 4. Typical staining procedure is described further. […] All images are maximum intensity projection. […] The mitochondrial staining on Figure 4A is very homogeneous. […] The mitochondrial staining on Figure 4B is very heterogeneous, unlike the Figure 4A. Figure 4C represents the overlap image of Figure 4A and Figure 4B. Bluish hint Figure 4C corresponds to relatively high mitochondrial pH, reddish to relatively low mitochondrial pH. Figure 4D represents bright field image. […] Confocal images were acquired for control, FCCP- and nigericin-treated cell samples, and the ratio between fluorescein and Cy5 channel fluorescence was quantified.

LT-HSC = assay: mitochondrial pH of hematopoietic stem cells in different culture conditions, measured with 5FA-PIP-Cy5-DA; format: cell-based, mice; conditions: LT-HSC cultured with 5 uM DMOG or IL-3 20 ng/mL and IL-6 100ng/mL, compared with basal medium, ST-HSC and MPP
Source text: For LT-HSC cells, three different culture conditions (basal medium, DMOG-induced chemical hypoxia and IL-3, IL-6 - induced differentiation) were examined. The calibration curve for the ratio of 5Fluoro/Cy5 fluorescence was obtained using FCCP and a PBS-5% BSA buffer with MPP cells in a manner analogous to the method described in Example 2 (see Figure 10). Fresh cells, extracted from bone marrow of 8-12 week old male mice were stained on ice for surface cell markers and sorted by FACS, according to the following phenotypes: LT-HSC Lin- cKit+ Sca1+ CD150+ CD34- CD48-; ST-HSC Lin- cKit+ Sca1 + CD150+ CD34+; MPP Lin- cKit+ Sca1 + CD150- CD34+. The cells were cultured in Hematopoietic Stemline II (Sigma) medium with addition of SCF and Flt-3 cytokines. For appropriate experiments, additionally 5 uM DMOG or IL-3 20 ng/mL and IL-6 100ng/mL cytokines were added. […] Separate fluorescent images in green and deep red spectral channels were acquired. The florescence ratio was quantified by a specifically designed batch ImageJ plugin as described above.

A2780 cells [5] = assay: mitochondrial pH of drug-treated cells, measured with 5FA-PIP-Cy5-DA; format: cell-based
Source text: The calibration curve for the ratio of 5Fluoro/Cy5 fluorescence was obtained using FCCP and a PBS-5% BSA buffer with A2780 cells in a manner analogous to the method described in Example 2 (see Figure 12). The quantifying of mitochondrial pH in the presence of the drug and after the drug was washed away allowed the distinction between interference with mitochondrial metabolism and general cytotoxicity. If the effect of the drug was primarily to affect mitochondrial metabolism it was expected that the mitochondrial pH would quickly return to the non-treated cell level following removal of the drug, providing the drug had no other significant cytotoxic effects. Conversely, if the effect of the drug were not reversed by the washing step, an observed alteration of mitochondrial pH could be interpreted at least partially as a downstream consequence of the general cytotoxicity of the drug. A2780 cells were cultured in 24-well microscopy glass bottom plates in RPMI medium, containing Glutamax with 10% FBS addition. The cells were treated with appropriate 800uM […] or 5uM cisplatin. […] If the drug was not washed away prior to staining, it remained present in the medium through the whole imaging time. Separate fluorescent images in green and deep red spectral channels were acquired. The florescence ratio was quantified by a specifically designed batch ImageJ plugin as described above. Statistical analysis was performed using 1-way ANOVA with Bonferroni-Holm post-hoc analysis.

[6] = after the drug was washed away, treated one day with 800uM RAPTA-T or 5uM cisplatin, control cells pH 8.4
[7] = in the presence of the drug, treated one day with 800uM RAPTA-T or 5uM cisplatin, control cells pH 8.4

CN1C(=CC=CC=CC2=[N+](CCCCCC(=O)N3CCN(CC(=O)Nc4ccc5c(c4)C(=O)OC54c5ccc(O)cc5Oc5cc(O)ccc54)CC3)c3ccccc3C2(C)C)C(C)(C)c2ccccc21 [5FA-PIP-Cy5]
pKa of the active form [1]: 6.88 | staining of mitochondria (A2780 cells [2]): absolutely no staining of mitochondria

CO[C@@H]1C[C@@H](C[C@H]2CC[C@H](C)[C@H]([C@@H](C)C(=O)O)O2)O[C@]2(O[C@](C)([C@H]3CC[C@@](C)([C@@H]4O[C@@H]([C@H]5O[C@@](O)(CO)[C@H](C)C[C@@H]5C)C[C@@H]4C)O3)C[C@H]2C)[C@@H]1C [nigericin]
collapse of the mitochondrial pH gradient [3]: no full gradient collapse | 5Fluo-Cy5 ratio [4]: clear measurable decrease

COC(=O)CNC(=O)C(=O)OC [DMOG]
average mitochondrial pH (LT-HSC): the same level of average mitochondrial pH

N.N.[Cl][Pt][Cl] [cisplatin]
mitochondrial pH (A2780 cells [5]; [6]): 8.0 | mitochondrial pH (A2780 cells [5]; [7]): 7.8

Cc1ccccc1.[Cl][Ru]([Cl])[PH]12CN3CN(CN(C3)C1)C2 [RAPTA-T]
mitochondrial pH (A2780 cells [5]; [6]): 8.4 | mitochondrial pH (A2780 cells [5]; [7]): 8.0

N#CC(C#N)=NNc1ccc(OC(F)(F)F)cc1 [FCCP, carbonylcyanide-4-trifluoromethoxyphenylhydrazone]
collapse of the mitochondrial pH gradient [3]: full collapse of the mitochondrial pH gradient | 5Fluo-Cy5 ratio [4]: clear measurable decrease

CC[C@H]1/C=C/C=C/C[C@@H](C)[C@H](O)[C@@](C)(O)C(=O)[C@@H](C)[C@H](O)[C@@H](C)C(=O)[C@@H](C)[C@H](O)[C@@H](C)/C=C/C(=O)O[C@@H]2[C@H](C)[C@H](CC1)O[C@]1(CC[C@H](C)[C@H](C[C@@H](C)O)O1)[C@H]2C [oligomycin]
mitochondrial pH (A2780 cells [5]; addition of 10µm oligomycin, increase from 8.4): around 8.5
